Results published in patent US20240398757A1 (COCRYSTAL PHARMA, INC., priority 2022, published 2024).

These compounds were tested against T1, SARS2 protease (Severe acute respiratory syndrome coronavirus 2, UniProt P0DTD1) (assay: SARS-CoV-2 protease inhibition assay (SARS2 FRET protease assay)). Conditions: IC50 (μM), SARS2 protease 30 nM, peptide substrate 1.3 μM, 120 minutes at 37° C., compounds 20 μM to 0.075 nM.
T1 construct: SARS2 protease was added to a final concentration of 30 nM
Type: biochemical
Compound CCCC[C@H](NC(=O)O[C@@H](c1ccccc1)C(C)(C)c1cccc(F)c1)C(=O)N[C@@H](C[C@@H]1CCNC1=O)C(=O)C(=O)NCC [Compound A215] has an IC50 of 1.01 µM. CCCC[C@H](NC(=O)O[C@H](c1ccccc1)C(C)(C)c1cccc(F)c1)C(=O)N[C@@H](C[C@@H]1CCNC1=O)C(=O)C(=O)NCC [Compound A216] showed an IC50 of 0.006 µM. CCCC[C@H](NC(=O)O[C@@H](c1cccc(F)c1)C(F)(F)c1cccc(F)c1)C(=O)N[C@H](C=O)C[C@@H]1CCNC1=O [Compound A217] showed an IC50 of 0.01 µM. Compound CCCCC[C@H](NC(=O)O[C@H](c1ccccc1)C(F)(F)c1cccc(Cl)c1)C(=O)N[C@H](C=O)C[C@@H]1CCNC1=O [Compound A218] has an IC50 of 0.001 µM. For O=C[C@H](C[C@@H]1CCNC1=O)NC(=O)[C@H](CCCF)NC(=O)OC(c1ccccc1)C(F)(F)c1cccc(Cl)c1 (stereo partly shown) [Compound A219], the IC50 was 0.16 µM. For CCNC(=O)C(=O)[C@H](C[C@@H]1CCNC1=O)NC(=O)[C@H](CC1CCCC1)NC(=O)O[C@@H](c1ccccc1)C(F)(F)c1cccc(Cl)c1 [Compound A220, (S)-2-(3-chlorophenyl)-2,2-difluoro-1-phenylethyl ((S)-3-cyclopentyl-1-(((S)-4-(ethylamino)-3,4-dioxo-1-((S)-2-oxopyrrolidin-3-yl)butan-2-yl)amino)-1-oxopropan-2-yl)carbamate], the IC50 was 0.183 µM. CC(C)C[C@H](NC(=O)OC(C(C)C)C(F)(F)c1cccc(-c2ccccc2)c1)C(=O)N[C@H](C=O)C[C@@H]1CCNC1=O (stereo partly drawn) [Compound A222, 1-([1,1′-Biphenyl]-3-yl)-1,1-difluoro-3-methylbutan-2-yl ((S)-4-methyl-1-oxo-1-(((S)-1-oxo-3-((S)-2-oxopyrrolidin-3-yl)propan-2-yl)amino)pentan-2-yl)carbamate] showed an IC50 of 0.003 µM. For CC(C)C[C@H](NC(=O)O[C@@H](c1ccccc1)C(F)(F)c1cccc(F)c1)C(=O)N[C@H](C=O)C[C@@H]1CCNC1=O [Compound A223, (S)-2,2-difluoro-2-(3-fluorophenyl)-1-phenylethyl ((S)-4-methyl-1-oxo-1-(((S)-1-oxo-3-((S)-2-oxopyrrolidin-3-yl)propan-2-yl)amino)pentan-2-yl)carbamate], the IC50 was 0.007 µM. CCCC[C@H](NC(=O)OC(c1ccccc1)C(F)(F)c1cccc(Cl)c1)C(=O)N[C@@H](C[C@@H]1CCNC1=O)C(=O)C(N)=O (stereo partly drawn) [Compound A224, 2-(3-chlorophenyl)-2,2-difluoro-1-phenylethyl ((S)-1-(((S)-4-amino-3,4-dioxo-1-((S)-2-oxopyrolidin-3-yl)butan-2-yl)amino)-1-oxohexan-2-yl) carbamate] gave an IC50 of 0.0001 µM. CC(C)C[C@H](NC(=O)O[C@@H](C(C)C)C(F)(F)c1cccc(-c2ccccc2)c1)C(=O)N[C@@H](C[C@@H]1CCNC1=O)C(=O)C(=O)NC1CC1 [Compound A226, 1-([1,1′-biphenyl]-3-yl)-1,1-difluoro-3-methylbutan-2-yl ((S)-1-(((S)-4-(cyclopropylamino)-3,4-dioxo-1-((S)-2-oxopyrrolidin-3-yl)butan-2-yl)amino)-4-methyl-1-oxopentan-2-yl)carbamate] gave an IC50 of 0.062 µM. Work on O=C(N[C@@H](CCC(F)F)C(=O)N[C@@H](C[C@@H]1CCNC1=O)C(=O)C(=O)NC1CC1)O[C@@H](c1ccccc1)C(F)(F)c1cccc(Cl)c1 [Compound A227, (S)-2-(3-chlorophenyl)-2,2-difluoro-1-phenylethyl ((S)-1-(((S)-4-(cyclopropylamino)-3,4-dioxo-1-((S)-2-oxopyrrolidin-3-yl)butan-2-yl)amino)-5,5-difluoro-1-oxopentan-2-yl)carbamate] yielded an IC50 of 0.412 µM. CCC(=O)OC([C@H](C[C@@H]1CCNC1=O)NC(=O)[C@H](CC1CCCCC1)NC(=O)O[C@@H](c1ccccc1)C(F)(F)c1cccc(Cl)c1)S(=O)(=O)O (stereo partly drawn) [Compound A229, sodium (2S,6S,9S)-1-(3-chlorophenyl)-6-(cyclohexylmethyl)-1,1-difluoro-4,7,12-trioxo-9-(((S)-2-oxopyrrolidin-3-yl)methyl)-2-phenyl-3,11-dioxa-5,8-diazatetradecane-10-sulfonate] was tested, and the IC50 was no less than 20 µM. Work on O=C(N[C@@H](CC(F)F)C(=O)N[C@@H](C[C@@H]1CCNC1=O)C(=O)C(=O)NC1CC1)OC(c1ccccc1)C(F)(F)c1cccc(Cl)c1 (stereo partly drawn) [Compound A230, 2-(3-chlorophenyl)-2,2-difluoro-1-phenylethyl ((S)-1-(((S)-4-(cyclopropylamino)-3,4-dioxo-1-((S)-2-oxopyrrolidin-3-yl)butan-2-yl)amino)-4,4-difluoro-1-oxobutan-2-yl)carbamate] yielded an IC50 of 0.007 µM. In the case of CCCC[C@H](NC(=O)OC(c1ccccc1)C(F)(F)c1cccc(Cl)c1)C(=O)N[C@@H](C[C@@H]1CCNC1=O)C(=O)C(=O)NCCO (stereo partly drawn) [Compound A231, 2-(3-chlorophenyl)-2,2-difluoro-1-phenylethyl ((S)-1-(((S)-4-((2-hydroxyethyl)amino)-3,4-dioxo-1-((S)-2-oxopyrrolidin-3-yl)butan-2-yl)amino)-1-oxohexan-2-yl)carbamate], the IC50 is reported as 0.089 µM. For O=C[C@H](C[C@@H]1CCNC1=O)NC(=O)[C@H](CC(F)F)NC(=O)OC(c1ccccc1)C(F)(F)c1cccc(Cl)c1 (stereo partly drawn) [Compound A232, 2-(3-chlorophenyl)-2,2-difluoro-1-phenylethyl ((S)-4,4-difluoro-1-oxo-1-(((S)-1-oxo-3-((S)-2-oxopyrrolidin-3-yl)propan-2-yl)amino)butan-2-yl)carbamate], the IC50 was 0.022 µM. Work on O=C(N[C@@H](CC1CCCCC1)C(=O)N[C@@H](C[C@@H]1CCNC1=O)C(O)S(=O)(=O)O)O[C@H](c1ccccc1)C(F)(F)c1cccc(F)c1 (stereo partly drawn) [Compound A233, sodium (2S)-2-((S)-3-cyclohexyl-2-((((R)-2,2-difluoro-2-(3-fluorophenyl)-1-phenylethoxy)carbonyl)amino)propanamido)-1-hydroxy-3-((S)-2-oxopyrrolidin-3-yl)propane-1-sulfonate] yielded an IC50 of 0.025 µM. CCC(C)C[C@H](NC(=O)OC(c1ccccc1)C(F)(F)c1cccc(Cl)c1)C(=O)N[C@H](C=O)C[C@@H]1CCNC1=O (stereo partly shown) [Compound A234] showed an IC50 of 0.001 µM. In the case of O=C(N[C@@H](CC1CCCCC1)C(=O)N[C@@H](C[C@@H]1CCNC1=O)C(=O)C(=O)NC1CC1)O[C@@H](c1ccccc1)C(F)(F)c1cccc(F)c1 [Compound A236], the IC50 is reported as 0.817 µM. With O=C(N[C@@H](CC1CCCCC1)C(=O)N[C@@H](C[C@@H]1CCNC1=O)C(=O)C(=O)NC1CC1)O[C@H](c1ccccc1)C(F)(F)c1cccc(F)c1 [Compound A237] the IC50 was 0.003 µM. Compound CCCC[C@H](NC(=O)OC(c1ccccc1)C(F)(F)c1cccc(Cl)c1)C(=O)N[C@@H](C[C@@H]1CCNC1=O)C(=O)c1nc2ccccc2s1 (stereo partly drawn) [Compound A238, 2-(3-chlorophenyl)-2,2-difluoro-1-phenylethyl ((S)-1-(((S)-1-(benzo[d]thiazol-2-yl)-1-oxo-3-((S)-2-oxopyrrolidin-3-yl)propan-2-yl)amino)-1-oxohexan-2-yl)carbamate] has an IC50 of 1.16 µM. CCNC(=O)C(=O)[C@H](C[C@@H]1CCNC1=O)NC(=O)[C@H](Cc1ccccc1)NC(=O)OC(c1ccccc1)C(F)(F)c1cccc(Cl)c1 (stereo partly drawn) [Compound A240, 2-(3-chlorophenyl)-2,2-difluoro-1-phenylethyl ((S)-1-(((S)-4-(ethylamino)-3,4-dioxo-1-((S)-2-oxopyrrolidin-3-yl)butan-2-yl)amino)-1-oxo-3-phenylpropan-2-yl)carbamate] gave an IC50 of 0.638 µM. O=C(N[C@@H](Cc1ccccc1)C(=O)N[C@@H](C[C@@H]1CCNC1=O)C(=O)C(=O)NC1CC1)OC(c1ccccc1)C(F)(F)c1cccc(Cl)c1 (stereo partly drawn) [Compound A241, 2-(3-chlorophenyl)-2,2-difluoro-1-phenylethyl ((S)-1-(((S)-4-(cyclopropylamino)-3,4-dioxo-1-((S)-2-oxopyrrolidin-3-yl)butan-2-yl)amino)-1-oxo-3-phenylpropan-2-yl)carbamate] gave an IC50 of 0.614 µM. CCCC(=O)OC([C@H](C[C@@H]1CCNC1=O)NC(=O)[C@H](CC1CCCCC1)NC(=O)O[C@@H](c1ccccc1)C(F)(F)c1cccc(Cl)c1)S(=O)(=O)O (stereo partly drawn) [Compound A242, sodium (2S,6S,9S)-1-(3-chlorophenyl)-6-(cyclohexylmethyl)-1,1-difluoro-4,7,12-trioxo-9-(((S)-2-oxopyrrolidin-3-yl)methyl)-2-phenyl-3,11-dioxa-5,8-diazapentadecane-10-sulfonate] gave an IC50 of 1.2 µM. Compound CCCC[C@H](NC(=O)O[C@H](c1ccccc1)C(F)(F)c1cccc(Cl)c1)C(=O)N[C@@H](C[C@@H]1CCNC1=O)C(=O)C(N)=O [Compound A248, (R)-2-(3-chlorophenyl)-2,2-difluoro-1-phenylethyl ((S)-1-(((S)-4-amino-3,4-dioxo-1-((S)-2-oxopyrrolidin-3-yl)butan-2-yl)amino)-1-oxohexan-2-yl)carbamate] has an IC50 of 0.0004 µM. In the case of CCCC[C@H](NC(=O)OC(c1ccccc1)C(F)(F)c1cccc(Cl)c1)C(=O)N[C@@H](C[C@@H]1CCNC1=O)C(=O)C(=O)O (stereo partly drawn) [Compound A250, (3S)-3-((2S)-2-(((2-(3-chlorophenyl)-2,2-difluoro-1-phenylethoxy)carbonyl)amino)hexanamido)-2-oxo-4-((S)-2-oxopyrrolidin-3-yl)butanoic acid], the IC50 is reported as 0.036 µM. CCCC[C@H](NC(=O)OC(c1cccnc1)C(F)(F)c1cccc(Cl)c1)C(=O)N[C@@H](C[C@@H]1CCNC1=O)C(=O)C(=O)NC1CC1 (stereo partly shown) [Compound A252] showed an IC50 of 0.002 µM. Work on O=C[C@H](C[C@@H]1CCNC1=O)NC(=O)[C@H](Cc1ccccc1)NC(=O)O[C@@H](c1ccccc1)C(F)(F)c1cccc(Cl)c1 [Compound A253, (S)-2-(3-chlorophenyl)-2,2-difluoro-1-phenylethyl ((S)-1-oxo-1-(((S)-1-oxo-3-((S)-2-oxopyrrolidin-3-yl)propan-2-yl)amino)-3-phenylpropan-2-yl)carbamate] yielded an IC50 of 0.002 µM. For O=C[C@H](C[C@@H]1CCNC1=O)NC(=O)[C@H](Cc1ccccc1)NC(=O)OC(C1CCCCC1)C(F)(F)c1cccc(Cl)c1 (stereo partly shown) [Compound A254], the IC50 was 0.002 µM.
